Values quoted from earlier work as cited in publication PMC9096979 (ACS Omega, 2022).

Molecular target: myotoxin II (Bothrops asper, UniProt P24605)
Sequence (P24605 17-137 limits assumed): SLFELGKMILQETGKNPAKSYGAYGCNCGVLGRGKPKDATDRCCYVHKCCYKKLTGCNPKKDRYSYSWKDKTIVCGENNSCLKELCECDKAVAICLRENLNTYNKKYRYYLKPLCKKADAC

For Cc1ccc(C(=O)Nc2ccc(S(=O)(=O)O)c3cc(S(=O)(=O)O)cc(S(=O)(=O)O)c23)cc1NC(=O)c1cccc(NC(=O)Nc2cccc(C(=O)Nc3cc(C(=O)Nc4ccc(S(=O)(=O)O)c5cc(S(=O)(=O)O)cc(S(=O)(=O)O)c45)ccc3C)c2)c1 [suramin], the “inhibition of myotoxin II, in words” value is listed as “capable of inhibiting myotoxin II”.
